Assay type in all cases: cell-based
The test system of test [1] is D425 medulloblastoma cells. The test can be described thus: D425 cell viability / proliferation (CellTiter-Glo). To be noted: for pIC50: Medulloblastoma cell, 48 hours treatment, CellTiter-Glo, read-out: IC50 for D425 cell growth. The method, then: D425 medulloblastoma cells were purchased from SigmaAldrich. D425 meduloblastoma cells were cultured in improved Dulbecco's modified Eagle's medium (DMEM) Richter's modification supplemented with 20% fetal bovine serum and 1% Penicillin-streptomycin. Incubation was performed at 37° C. and 5% CO2.
D425 cells were seeded at 3000-3500 cells/90 ul growth medium per well on 96-well tissue culture plates. Cells were incubated overnight to allow them to recover. Next day cells were treated with tested compounds and incubated for 48 hours.
Cell Proliferation assays in triplicate were performed at each concentration. Compounds test range was 1-30 μM (0, 5, 10, 15, 20, 25, and 30). The compounds were dissolved in DMSO. A series of dilutions were made in 1% DMSO in growth medium so that the final concentration of DMSO is 0.1% in all of treatments.
After treatment, cells were allowed to equilibrate at room temperature for one hour. Cell proliferation was measured by Luminescence quantification using Promega CellTiter-Glo Luminescent Cell Viability Assay. To perform the assay, 90 ul of Celltiter-Glo substrate was added to each well, plates were shake for 2 minutes and allowed to equilibrate for 10 minutes at room temperature. Luminescence intensity was measured using the Spectramax i3x plate reader.
The Luminescence intensity data were analyzed using the computer software Graphpad Prism. In the absence of the compound, the luminescence intensity (Lt) in each data set was defined as 100% cell viability. The percent cell in the presence of each compound was calculated according to the following equation: % Cell=L/Lt, were L=the luminescence intensity in the presence of the compound.
The values of % cell versus a series of compound concentrations (0, 5, 10, 15, 20, 25, and 30 μM) were then plotted using Nonlinear regression analysis of Sigmoidal dose-response curve. IC50 value was determined by the concentration causing a half-maximal percent activity.

In the next test the test system is A172 glioblastoma cells. The test can be described thus: A172 cell viability / proliferation (CellTiter-Glo). The following applies: Homo sapiens, A 172, 48-72 hours treatment, read-out: IC50 for A172 cell growth. On the procedure: (§1) A172 glioblastoma cells were cultured in Dulbecco's modified Eagle's medium (DMEM) supplemented with 10% fetal bovine serum and 1% Penicillin-streptomycin. Incubation was performed at 37° C. and 5% CO2.
A172 cells were seeded at 3000-3500 cells/90 μL growth medium per well on 96-well tissue culture plates. Cells were incubated overnight to allow them to recover and reattach. Next day cells were treated with tested compounds and incubated for 48-72 hours.
Cell Proliferation assays in triplicate were performed at each concentration. Compounds test range was 1-30 µM (0, 5, 10, 15, 20, 25, and 30). The compounds were dissolved in DMSO. […]
After treatment, cells were allowed to equilibrate at room temperature for 1/2 to one hour. Cell proliferation was measured by Luminescence quantification using Promega CellTiter-Glo Luminescent Cell Viability Assay. […] Luminescence intensity was measured using the Spectramax i3× plate reader.
The Luminescence intensity data were analyzed using the computer software Graphpad Prism. In the absence of the compound, the luminescence intensity (Lt) in each data set was defined as 100% cell viability. The percent cell in the presence of each compound was calculated according to the following equation: % Cell=L/Lt, were L=the luminescence intensity in the presence of the compound. […]

Test [2] has as its system phosphatase activity in ApoE transfected A172 glioblastoma cells. Briefly: Cellular in vitro phosphatase activation assay (Malachite Green) in ApoE transfected A172 cells. To be noted: 24 hours. The method, then:
Cellular in vitro phosphatase activation assay was performed using the method of Theendakara et al, Molecular and Cellular Neuroscience, 83 (2017), pages 83-91 which is described below:
as §1
A172 cells were seeded at 5×10^5 cells/2.5 ml growth medium (without antibiotics) per well on 6-well tissue culture plates. Cells were incubated overnight to allow them to recover and reattach. […]
After 24 hrs, cells were washed twice with imidazole buffer and lysed using NP-40 Lysis buffer. […] The amount of phosphate release in the assay was determined by measuring absorbance at 620 nm using the Spectramax i3x plate reader.
The absorbance intensity data were analyzed using the computer software Graphpad Prism. The phosphate concentration for each sample was determined from the standard curve using phosphate standard concentrations. In order to compare samples, the first set (column A) were there was no transfection performed and no compound added, was designated a baseline; the absorbance measurement in this column was set as 100% phosphatase activity.

pIC50: −log10 of the molar value.

As to `O=S(=O)(NC1CCOC(C(c2ccc(F)cc2)c2ccc(F)cc2)C1)c1ccc(OC(F)(F)F)cc1` (stereo not drawn) [Example 16, N-(2-(bis(4-fluorophenyl)methyl)tetrahydro-2H-pyran-4-yl)-4-(trifluoromethoxy)benzenesulfonamide], the pIC50 in test [1] is 5.14.

As to `O=S(=O)(NC1CCOC(C2c3ccccc3CCc3ccccc32)C1)c1ccc(OC(F)(F)F)cc1` (racemic) [Example 2, N-(2-(10,11-dihydro-5H-dibenzo[a,d][7]annulen-5-yl)tetrahydro-2H-pyran-4-yl)-4-(trifluoromethoxy)benzenesulfonamide], the pIC50 in test [1] was 4.99; with A172 glioblastoma cells, 4.83. The “% increase from ApoE transfected cell at 5 μM test compound concentration” value in test [2] was 7.2%.

`O=S(=O)(NC1CCOC(C2c3ccccc3CCc3ccccc32)C1)c1ccc(Cl)cc1` (stereo not drawn) [Example 9, 4-chloro-N-(2-(10,11-dihydro-5H-dibenzo[a,d][7]annulen-5-yl)tetrahydro-2H-pyran-4-yl)benzenesulfonamide]: the negative-log IC50 (pIC50) in test [1] is 5.18.

Turning to `O=S(=O)(NC1CCOC(C2c3ccccc3CCc3ccccc32)C1)c1ccc(Br)cc1` (stereo not drawn) [Example 12, 4-bromo-N-(2-(10,11-dihydro-5H-dibenzo[a,d][7]annulen-5-yl)tetrahydro-2H-pyran-4-yl)benzenesulfonamide], in test [1], the pIC50 is 5.21.

Regarding `O=S(=O)(NC1CCOC(C2c3ccccc3CCc3ccccc32)C1)c1cccc(C(F)(F)F)c1` (stereo not drawn) [Example 13, N-(2-(10,11-dihydro-5H-dibenzo[a,d][7]annulen-5-yl)tetrahydro-2H-pyran-4-yl)-3-(trifluoromethyl)benzenesulfonamide], in test [1], the pIC50 was 5.29.

With `Cc1ccc(S(=O)(=O)NC2CCOC(C3c4ccccc4CCc4ccccc43)C2)cc1` (stereo not drawn) [Example 11, N-(2-(10,11-dihydro-5H-dibenzo[a,d][7]annulen-5-yl)tetrahydro-2H-pyran-4-yl)-4-meth ylbenzenesulfonamide], the pIC50 in test [1] is 5.02.

On to `O=S(=O)(N[C@H]1CCO[C@@H](C2c3ccccc3CCc3ccccc32)C1)c1ccc(OC(F)(F)F)cc1` (single isomer, unassigned) [Example 7], for which the pIC50 in test [1] is 5.28.

Regarding `O=C(NC1CCOC(C2c3ccccc3CCc3ccccc32)C1)c1ccc(OC(F)(F)F)cc1` (stereo not drawn) [Example 14, N-(2-(10,11-dihydro-5H-dibenzo[a,d][7]annulen-5-yl)tetrahydro-2H-pyran-4-yl)-4-(trifluoromethoxy)benzamide], the “D425 cell growth, effect at single concentration” value in test [1] (@ 30 μM, 48 hours) is on record as about 50% @ 30 μM.

Turning to `O=S(=O)(NC1CCOC(C2c3ccccc3CCc3ccccc32)C1)c1ccc(C(F)(F)F)cc1` (stereo not drawn) [Example 10, N-(2-(10,11-dihydro-5H-dibenzo[a,d][7]annulen-5-yl)tetrahydro-2H-pyran-4-yl)-4-(trifluoromethyl)benzenesulfonamide], the pIC50 in test [1] is 5.22.

With `O=S(=O)(NC1CCOC(C(c2ccccc2)c2ccccc2)C1)c1ccc(OC(F)(F)F)cc1` (stereo not drawn) [Example 15, N-(2-benzhydryltetrahydro-2H-pyran-4-yl)-4-(trifluoromethoxy)benzenesulfonamide], the pIC50 in test [1] was 4.95.

(Values after US12522575B2, “2-diarylmethyl-4-aminotetrahydropyran derivatives and related compounds as anticancer, antiinflammatory, antifibrotic and neuroprotective agents” (Atux Iskay LLC, priority 2021, dated 2026).)
